# In paper PMC6092189 (Nature structural & molecular biology, 2018):
# Molecular target: human β-cardiac myosin (Homo sapiens, UniProt P12883)
# Test: single-molecule harmonic force spectroscopy dose titration
# Assay type: binding
# human β-cardiac myosin, sequence (P12883 1-808): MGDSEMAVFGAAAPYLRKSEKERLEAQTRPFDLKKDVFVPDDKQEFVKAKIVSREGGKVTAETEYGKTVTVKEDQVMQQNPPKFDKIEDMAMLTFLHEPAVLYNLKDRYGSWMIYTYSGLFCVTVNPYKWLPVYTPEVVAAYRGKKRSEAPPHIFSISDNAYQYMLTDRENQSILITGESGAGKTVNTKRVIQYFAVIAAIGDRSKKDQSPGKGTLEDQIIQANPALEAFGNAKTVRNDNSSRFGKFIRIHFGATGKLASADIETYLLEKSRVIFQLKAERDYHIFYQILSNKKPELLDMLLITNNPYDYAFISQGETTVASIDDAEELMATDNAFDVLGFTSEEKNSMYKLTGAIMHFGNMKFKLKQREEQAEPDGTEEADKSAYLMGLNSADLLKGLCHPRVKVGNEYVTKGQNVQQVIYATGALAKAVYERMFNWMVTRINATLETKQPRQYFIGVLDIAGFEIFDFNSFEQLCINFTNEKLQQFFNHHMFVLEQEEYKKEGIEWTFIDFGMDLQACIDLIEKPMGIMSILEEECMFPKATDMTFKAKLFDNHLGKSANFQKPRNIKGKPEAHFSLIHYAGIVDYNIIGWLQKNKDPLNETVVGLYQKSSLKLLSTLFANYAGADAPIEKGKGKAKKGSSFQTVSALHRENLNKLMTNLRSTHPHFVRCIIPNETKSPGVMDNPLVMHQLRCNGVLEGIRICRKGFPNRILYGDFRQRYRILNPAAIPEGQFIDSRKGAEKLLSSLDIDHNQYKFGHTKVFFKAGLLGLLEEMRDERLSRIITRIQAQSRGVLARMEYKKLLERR
# human β-cardiac myosin, sequence (P08590 2-195 partner): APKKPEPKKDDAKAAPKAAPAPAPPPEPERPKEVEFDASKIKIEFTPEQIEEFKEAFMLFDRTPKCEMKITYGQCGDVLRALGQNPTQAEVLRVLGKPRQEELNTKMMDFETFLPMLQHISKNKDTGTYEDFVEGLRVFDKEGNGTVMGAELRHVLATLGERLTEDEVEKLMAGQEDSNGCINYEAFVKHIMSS
structure (smiles),measurement,value
"COC(=O)N1CCN(Cc2cccc(NC(=O)Nc3ccc(C)nc3)c2F)CC1 [OM, omecamtiv mecarbil]",Kd,310 ± 50 nM
